US20110306597A1, “Nicotinamide Derivatives” (priority 2008, published 2011)

What follows are compounds tested against human recombinant H-PGDS (Homo sapiens, UniProt O60760) (assay: Fluorescence Intensity h-PGDS TBA Enzyme Assay). Settings: 1:175,000 human recombinant H-PGDS, highest inhibitor concentration typically 1 μM.
Assay type: biochemical
Summary of the method: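 Readout is PGH2 depletion: after a 42 s reaction with 5.0 μM PGH2 and 2.5 mM glutathione (pH 8.0 Tris, 10 min inhibitor preincubation), Fe(II) converts leftover PGH2 to MDA, which forms a fluorescent TBA complex. IC50s come from 11-point, 3-fold duplicate curves, 4-parameter fit.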

Sequence of human recombinant H-PGDS (O60760 whole entry): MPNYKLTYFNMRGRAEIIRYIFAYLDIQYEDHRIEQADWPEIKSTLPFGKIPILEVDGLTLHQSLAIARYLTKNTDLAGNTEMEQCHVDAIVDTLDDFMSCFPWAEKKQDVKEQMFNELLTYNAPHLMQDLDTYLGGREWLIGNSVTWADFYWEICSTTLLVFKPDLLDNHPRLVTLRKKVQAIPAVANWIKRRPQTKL

Row | SMILES | IC50 [nM]
1 | CCOC(=O)C1(NC(=O)c2ccc(-c3ccccc3)nc2)CCOCC1 [Example 372, Ethyl 4-{[(6-phenylpyridin-3-yl)carbonyl]amino}tetrahydro-2H-pyran-4-carboxylate] | 249
2 | COc1cccc(-c2ccc(C(=O)NCC3C(=O)Nc4ccccc43)cn2)c1 (stereo not shown) [Example 313, 6-(3-Methoxyphenyl)-N-[(2-oxo-2,3-dihydro-1H-indol-3-yl)methyl]nicotinamide] | 7.62
3 | CC(O)CNC(=O)c1ccc(-c2ccccc2)nc1 (stereo not shown) [Example 390, N-(2-Hydroxypropyl)-6-phenylnicotinamide] | 13
4 | CC(C)OCCCNC(=O)c1ccc(-c2cccc(F)c2)nc1 [Example 37, 6-(3-Fluorophenyl)-N-(3-isopropoxypropyl) nicotinamide] | 15.8
5 | O=C(NCc1ccc(Cl)c(Cl)c1)c1ccc(-c2cccc(F)c2)nc1 [Example 154, N-(3,4-Dichlorobenzyl)-6-(3-fluorophenyl)nicotinamide] | 43.7
6 | O=C(CNC(=O)c1ccc(-c2cccc(F)c2)nc1)OCc1ccccc1 [Example 418, Benzyl N-{[6-(3-fluorophenyl)pyridin-3-yl]carbonyl}glycinate] | 96.1
7 | COc1ccc(CNC(=O)c2ccc(-c3cccc(F)c3)nc2)cc1 [Example 414, 6-(3-Fluorophenyl)-N-(4-methoxybenzyl)nicotinamide] | 35.3
8 | C[C@H](O)CNC(=O)c1ccc(-c2cccc(F)c2)nc1 [Example 129, 6-(3-Fluorophenyl)-N-[(2S)-2-hydroxypropyl]nicotinamide] | 92
9 | CCOC(=O)C(CNC(=O)c1ccc(-c2cccc(OC)c2)nc1)c1c(F)cccc1F (stereo not shown) [Example 331, Ethyl 2-(2,6-difluorophenyl)-3-({[6-(3-methoxyphenyl)pyridin-3-yl]carbonyl}amino) propanoate] | 234
10 | CCCOCCCNC(=O)c1ccc(-c2cccc(F)c2)nc1 [Example 22, 6-(3-Fluorophenyl)-N-(3-propoxypropyl)nicotinamide] | 13.8
11 | O=C(NCc1cn2ncsc2n1)c1ccc(-c2cccc(F)c2)nc1 [Example 182, 6-(3-Fluorophenyl)-N-(imidazo[2,1-b][1,3,4]thiadiazol-6-ylmethyl)nicotinamide] | 79.2
12 | CCOC(=O)CC[C@H](NC(=O)c1ccc(-c2cccc(F)c2)nc1)C(=O)OCC [Example 27, Diethyl N-{[6-(3-fluorophenyl)pyridin-3-yl]carbonyl}-L-glutamate] | 4.29
13 | O=C(NCC1CCCN(C2CCOCC2)C1)c1ccc(-c2cccc(F)c2)nc1 (stereo not shown) [Example 110, 6-(3-Fluorophenyl)-N-{[1-(tetrahydro-2H-pyran-4-yl)piperidin-3-yl]methyl}nicotinamide] | 87.1
14 | O=C(NC1CCOCC1)c1ccc(-c2ccccc2)nc1 [Example 366, 6-Phenyl-N-(tetrahydro-2H-pyran-4-yl)nicotinamide] | 7.5
15 | CCOC(=O)Cc1noc(CNC(=O)c2ccc(-c3cccc(F)c3)nc2)n1 [Example 201, Ethyl {5-[({[6-(3-fluorophenyl)pyridin-3-yl]carbonyl}amino)methyl]-1,2,4-oxadiazol-3-yl}acetate] | 59.2
16 | CC(CCCC(C)(C)O)NC(=O)c1ccc(-c2cccc(F)c2)nc1 (stereo not shown) [Example 24, 6-(3-Fluorophenyl)-N-(5-hydroxy-1,5-dimethylhexyl)nicotinamide] | 20.2

Row | SMILES | IC50 [nM]
17 | O=C(NCC1CN(CCc2ccccn2)C(=O)CO1)c1ccc(-c2cccc(F)c2)nc1 (stereo not shown) [Example 105, 6-(3-Fluorophenyl)-N-{[5-oxo-4-(2-pyridin-2-ylethyl)morpholin-2-yl]methyl}nicotinamide] | 58.6
18 | COc1ccc(C(N)CC(=O)NC(=O)c2ccc(-c3cccc(F)c3)nc2)cc1OC (stereo not shown) [Example 196, N-[3-Amino-3-(3,4-dimethoxyphenyl)propanoyl]-6-(3-fluorophenyl)nicotinamide] | 12.4
19 | COC(=O)CC(NC(=O)c1ccc(-c2cccc(F)c2)nc1)c1cccnc1 (stereo not shown) [Example 171, Methyl 3-({[6-(3-fluorophenyl)pyridin-3-yl]carbonyl}amino)-3-pyridin-3-ylpropanoate] | 52.7
20 | Cc1cccc(-c2ccc(C(=O)NCCN3CCN(Cc4ccccc4)CC3)cn2)c1 [Example 249, N-[2-(4-Benzylpiperazin-1-yl)ethyl]-6-(3-methylphenyl)nicotinamide] | 29.8
21 | COc1cccc(-c2ccc(C(=O)NC3CCOCC3)cn2)c1 [Example 305, 6-(3-Methoxyphenyl)-N-(tetrahydro-2H-pyran-4-yl)nicotinamide] | 38.7
22 | Cc1cc(C)nc(CNC(=O)c2ccc(-c3cccc(F)c3)nc2)n1 [Example 95, N-[(4,6-Dimethylpyrimidin-2-yl)methyl]-6-(3-fluorophenyl)nicotinamide] | 95.7
23 | O=C(Nc1ccccc1)c1ccc(-c2cccc(F)c2)nc1 [Example 421, 6-(3-Fluorophenyl)-N-phenylnicotinamide] | 7.37
24 | COC(=O)CNC(=O)[C@H](C)NC(=O)c1ccc(-c2ccccc2)nc1 [Example 348, Methyl N-[(6-phenylpyridin-3-yl)carbonyl]-L-alanylglycinate] | 24.6
25 | O=C(NCC1CCCN(c2ncccn2)C1)c1ccc(-c2cccc(F)c2)nc1 (stereo not shown) [Example 101, 6-(3-Fluorophenyl)-N-[(1-pyrimidin-2-ylpiperidin-3-yl)methyl]nicotinamide] | 17.4
26 | O=C(NC(c1ccc(F)c(F)c1)c1nn[nH]n1)c1ccc(-c2cccc(F)c2)nc1 (stereo not shown) [Example 59, N-[(3,4-Difluorophenyl)(2H-tetrazol-5-yl)methyl]-6-(3-fluorophenyl)nicotinamide] | 10.6
27 | Cc1cccc(-c2ccc(C(=O)NCCN3CCCC3)cn2)c1 [Example 237, 6-(3-Methylphenyl)-N-(2-pyrrolidin-1-ylethyl)nicotinamide] | 504
28 | CCOC(=O)CC(NC(=O)c1ccc(-c2cccc(C)c2)nc1)c1ccc(OC)cc1 (stereo not shown) [Example 255, Ethyl 3-(4-methoxyphenyl)-3-({[6-(3-methylphenyl)pyridin-3-yl]carbonyl}amino)propanoate] | 38.7
29 | O=C(NCC1CCCN(c2ccccn2)C1)c1ccc(-c2cccc(F)c2)nc1 (stereo not shown) [Example 14, 6-(3-Fluorophenyl)-N-[(1-pyridin-2-ylpiperidin-3-yl)methyl]nicotinamide] | 9.18
30 | O=C(NCc1noc(C(=O)N2CC[C@H](O)C2)n1)c1ccc(-c2cccc(F)c2)nc1 [Example 199, 6-(3-Fluorophenyl)-N-[(5-{[(3S)-3-hydroxypyrrolidin-1-yl]carbonyl}-1,2,4-oxadiazol-3-yl)methyl]nicotinamide] | 622
31 | CC(C)(C)C(=O)CNC(=O)c1ccc(-c2cccc(F)c2)nc1 [Example 108, N-(3,3-Dimethyl-2-oxobutyl)-6-(3-fluorophenyl)nicotinamide] | 29.6

Other lines, results leading:

Row | IC50 [nM] | SMILES
32 | 204 | COc1cccc(-c2ccc(C(=O)NCCNc3ccccc3)cn2)c1 [Example 486, N-(2-Anilinoethyl)-6-(3-methoxyphenyl)nicotinamide]
33 | 8.79 | Cc1cccc2c1OCCC2NC(=O)c1ccc(-c2cc(F)cc(F)c2)nc1 (stereo not shown) [Example 533, 6-(3,5-Difluorophenyl)-N-(8-methyl-3,4-dihydro-2H-chromen-4-yl)nicotinamide]
34 | 64.4 | CC(C)(C)[C@@H](CO)NC(=O)c1ccc(-c2cccc(F)c2)nc1 [Example 539, 6-(3-Fluorophenyl)-N-[(1S)-1-(hydroxymethyl)-2,2-dimethylpropyl]nicotinamide]
35 | 95.1 | COC(=O)c1ccc(CNC(=O)c2ccc(-c3cccc(C)c3)nc2)cc1 [Example 455, Methyl 4-[({[6-(3-methylphenyl)pyridin-3-yl]carbonyl}amino)methyl] benzoate]
36 | 139 | Cc1ccccc1CNC(=O)c1ccc(-c2ccc(F)cc2)nc1 [Example 491, 6-(4-Fluorophenyl)-N-(2-methylbenzyl)nicotinamide]
37 | ≥ 1000 | NS(=O)(=O)c1ccc(CNC(=O)c2ccc(-c3ccc(F)cc3)nc2)cc1 [Example 460, N-[4-(Aminosulfonyl)benzyl]-6-(4-fluorophenyl) nicotinamide]
38 | 5.2 | O=C(NCc1nnc(-c2cccnc2)[nH]1)c1ccc(-c2ccccc2)nc1 [Example 514, 6-Phenyl-N-[(5-pyridin-3-yl-4H-1,2,4-triazol-3-yl)methyl]nicotinamide]
39 | 3.94 | Cc1cccc2c1OCCC2NC(=O)c1ccc(-c2cccc(F)c2)nc1 (stereo not shown) [Example 532, 6-(3-Fluorophenyl)-N-(8-methyl-3,4-dihydro-2H-chromen-4-yl)nicotinamide]
40 | 734 | O=C(NC1CCN(Cc2ccc(Cl)cc2)C1=O)c1ccc(-c2ccc(F)cc2)nc1 (stereo not shown) [Example 474, N-[1-(4-Chlorobenzyl)-2-oxopyrrolidin-3-yl]-6-(4-fluorophenyl)nicotinamide]
41 | 14.4 | O=C(NCCSCCO)c1ccc(-c2cccc(F)c2)nc1 [Example 440, 6-(3-Fluorophenyl)-N-{2-[(2-hydroxyethyl)thio]ethyl} nicotinamide]
42 | 3.24 | O=C(NC[C@H]1COc2ccccc2C1)c1ccc(-c2cccc(F)c2)nc1 [Example 573]
43 | 149 | Cc1cccc(-c2ccc(C(=O)NCc3ccc(C(F)(F)F)cc3)cn2)c1 [Example 454, 6-(3-Methylphenyl)-N-[4-(trifluoromethyl)benzyl] nicotinamide]
44 | 1510 | CC(C)[C@H](N)C(=O)NC(=O)c1ccc(-c2cccc(F)c2)nc1 [Example 526, 6-(3-Fluorophenyl)-N-L-valylnicotinamide]
45 | 90 | COc1cc(F)cc(-c2ccc(C(=O)NCc3ccc(OC)c(OC)c3)cn2)c1 [Example 556, N-(3,4-Dimethoxybenzyl)-6-(3-fluoro-5-methoxyphenyl)nicotinamide]
46 | 53.5 | Cc1ccc2c(c1)C(NC(=O)c1ccc(-c3cc(F)cc(F)c3)nc1)CC(C)(C)O2 (stereo not shown) [Example 536, 6-(3,5-Difluorophenyl)-N-(2,2,6-trimethyl-3,4-dihydro-2H-chromen-4-yl)nicotinamide]
